In test [1] the test system is JIMT-1 breast tumor cell line. The test is described as follows: CellTiter-Glo cell growth inhibition assay, JIMT-1. In kind it is cell-based. To be noted: for pIC50: Homo sapiens, JIMT-1, 72 h, JIMT1, breast, basal, HER2+, 3 days. As for the experimental part:
(§1) Breast tumor cell lines, BT-474, SK-Br-3, MDA-MB-453, MDA-MB-231 and T47D and head and neck squamous cell carcinoma line, SCC15 were purchased from the American Type Culture Collection.
(§2) BT-474, SK-Br-3, JimT-1, MDA-MB-453, MDA-MB-231 and T47D and SCC15 were cultured in a humidified incubator at 37° C. in 95% air, 5% CO2 in the RPMI 1640 containing 10% fetal bovine serum (FBS) media.
(§3) Cell growth inhibition was determined via CellTiter-Glo cell viability assays. Cells were seeded in a 96-well tissue culture plate (NUNC 136102) with the following plating densities in their respective media at 1000 or 2000 cells/well dependent on cell growth rate. […] The cells were incubated in the presence of the compounds for 3 days. ATP levels were determined by adding Cell Titer Glo® (Promega), incubating for 20 minutes then a luminescent signal was read on the SpectraMax M5 plate with a 0.5 sec integration time. Cell growth was calculated relative to vehicle (DMSO) treated control wells. […] When the CI value was between 0.9 and 1.10, the combination of the two agents was deemed additive. Combination Index values less than 0.9 were considered indicative of synergy. Combination Index values>1.10 indicated antagonism.

For test [2], the system named is SK-BR-3 breast tumor cell line. The test is described as follows: CellTiter-Glo cell growth inhibition assay, SK-BR-3. Type of test: cell-based. Particulars: Homo sapiens, 72 h, luminal, HER2+, 3 days. As for the experimental part: as §1, §2, §3
Test [3] deals with BT-474 breast tumor cell line. Briefly: CellTiter-Glo cell growth inhibition assay, BT-474. Particulars: for pIC50: Homo sapiens, BT-474, 72 h, BT474, breast, luminal, HER2+, 3 days. Type of test: cell-based. As for the experimental part:
as §1, §2, §3

For test [4], the system named is MDA-MB-453 breast tumor cell line. The test is described as follows: CellTiter-Glo cell growth inhibition assay, MDA-MB-453. In kind it is cell-based. To be noted: Homo sapiens, 72 h, luminal, HER2+, 3 days. As for the experimental part: as §1, §2, §3
Test [5] deals with MDA-MB-231 breast tumor cell line. Briefly: CellTiter-Glo cell growth inhibition assay, MDA-MB-231. In kind it is cell-based. Particulars: Homo sapiens, 72 h, post EMT, HER normal, 3 days. On the procedure:
as §1, §2, §3

Test [6] concerns T47D breast tumor cell line. The test is described as follows: CellTiter-Glo cell growth inhibition assay, T47D. To be noted: Homo sapiens, 72 h, luminal, HER normal, 3 days. In kind it is cell-based. On the procedure:
as §1, §2, §3

For test [7], the system named is LL1-BT-474-J4 (J4) breast cell clone. The test is described as follows: CellTiter-Glo cell growth inhibition assay, LL1-BT-474-J4. Type of test: cell-based. To be noted: for pIC50: 72 h; for sensitivity of the cell line to the agent (in words): LL1-BT-474-J4.
Test [8] has as its system SCC15 head and neck squamous cell carcinoma line. Briefly: cells. Particulars: Homo sapiens, SCC-15, 72 h, read-out: IC50 (cell growth inhibition). As for the experimental part: as §1, §2, §3
Test [9] relates to HN5C2 head and neck tumor cell line. Briefly: CellTiter-Glo cell growth inhibition assay, HN5C2. In kind it is cell-based.
Another test has as its system EGFR and erbB2 kinases. To be noted: Rusnak et al., 2001b, Xia et al., 2002; cited from earlier work.

pIC50: −log10 of the molar value.

For `Cc1nc(Nc2ncc(C(=O)Nc3c(C)cccc3Cl)s2)cc(N2CCN(CCO)CC2)n1` [Dasatinib, N-(2-chloro-6-methylphenyl)-2-[[6-[4-(2-hydroxyethyl)-1-piperazinyl]-2-methyl-4-pyrimidinyl]amino]-5-thiazolecarboxamide,monohydrate], the pIC50 is 6.40 in test [1]; 5.18 in [2]; 4.99 in test [3]; < 5.00 in [4]; 6.64 in test [5]; 5.05 in test [6]. Besides, the figures for the pIC50 in [7] and in test [8] were < 5.00 and 7.22, respectively.
For `CS(=O)(=O)CCNCc1ccc(-c2ccc3ncnc(Nc4ccc(OCc5cccc(F)c5)c(Cl)c4)c3c2)o1` [Lapatinib, N-{3-chloro-4-[(3-fluorobenzyl)oxy]phenyl}-6-[5-({[2-(methanesulphonyl)ethyl]amino}methyl)-2-furyl]-4-quinazolinamine], the pIC50 in test [1] is 4.83; in test [2] it was 6.66; in test [3], 7.05; in test [4], 5.32; in [5], < 5.00; in [6], < 5.00. Moreover, the pIC50 in [7] was 4.96; in test [9] (72 h), 5.01. Also, the “sensitivity of the cell line to the agent (in words)” value (from here on “sensitivity of the cell line”) in test [1] (JIMT-1) was “resistant”; in [3] (BT-474), “highly sensitive”; in [7], “resistant”; in [9] (HN5C2), “resistant”. Also, the “kinase inhibition in human xenograft studies” value in the test on EGFR and erbB2 kinases is on record as “dose-dependent kinase inhibition”.
As to `COc1cc2ncnc(Nc3ccc(F)c(Cl)c3)c2cc1OCCCN1CCOCC1` [gefitinb], in [7], the “sensitivity of the cell line” value is reported as “resistant”.
Consider `CC(=O)O[C@H]1C(=O)[C@@]2(C)[C@H]([C@H](OC(=O)c3ccccc3)[C@]3(O)C[C@H](OC(=O)[C@H](O)[C@@H](NC(=O)c4ccccc4)c4ccccc4)C(C)=C1C3(C)C)[C@]1(OC(C)=O)CO[C@@H]1C[C@@H]2O` [taxol], for which, in [7], the “sensitivity of the cell line” value is given as “retains sensitivity”.
